# Measured values published in patent publication US10357533B2, “Drug for the effective control of acute and or chronic pain and a method for its administration” (PVP LABS PTE. LTD., priority 2016, dated 2019).
# Where a SMILES comes first, the peptide text is derived from it. [ ]: non-standard residue; d: D form.
# How the values were obtained:
# Format in all cases: in vivo
# mice [1] = assay: Antinociceptive tolerance and withdrawal syndrome, tail flick test in mice; conditions: for TFL, s, Baseline values (Mean ± SEM): before administering
# Procedure: The tail flick test was the main method of evaluating peptide compound antinociceptive tolerance and withdrawal syndrome. The test involved evaluating tail flick latency (TFLtest). Baseline tail flick latency TFLbase was evaluated before administering the substances. The test was performed in outbred male mice.
# The animals were randomized into 4 groups of 10 animals in each group: Group 1: control—the animals were administered subcutaneous injections of water for injections for 14 days; Group 2: single peptide compound administration group—the animals were administered water for injections for 13 days and peptide compound at a dose of 0.5 mg/kg on day 14 by subcutaneous injection; Group 3: chronic peptide compound administration group—the animals were administered with peptide compound at a dose of 0.5 mg/kg by subcutaneous injection for 14 days; Group 4: withdrawal group—the animals were administered with peptide compound at a dose of 0.5 mg/kg by subcutaneous injection for 14 days, withdrawal test was evaluated after 48 hours.
# The last injection of the drug/water to groups 1-3 was administered 40 minutes before the test.
# mice [2] = assay: Duration of analgesic effect in the tail flick test in mice
# Procedure: This stage involved selecting the effective doses of peptide compound in the tail flick test in mice after a single subcutaneous administration of the substance at doses of 0.01, 0.05, 0.1, 0.5, 0.7, 1 and 5 mg/kg. Tail flick method is based on a spinal flexion reflex in response to a progressively increasing effect of thermal radiation on the surface of skin. A pain stimulus was applied to the tail locally, by the action of thermal radiation, using a TSE Systems analgesiometer (Germany). Stimulus intensity was set, corresponding to an increase in temperature from 30° C. to 60° C. over 13 seconds. The tail flick latency (TFL) of 13 seconds was used as the maximum allowable time of stimulation. The mice in test groups were given peptide compound, and control group mice were given the solvent (water for injections) by subcutaneous. Tail flick latency was evaluated 40 minutes after the administration of the study substance or solvent. The analysis of experimental results involved calculating the maximum possible effect (MPE).
# The duration of analgesic effect of peptide compound was evaluated in the tail flick test in mice as described above.
# Peptide compound was administered to mice subcutaneously at a doses of 0.5 mg/kg, 1.5 mg/kg and 4.5 mg/kg. The control group of animals was given a subcutaneous injection of the vehicle (water for injections). TFL test was evaluated in mice that received peptide compound at 30 minutes and at 1, 2, 4, 6, and 8 hours after dosing.
# mice [3] = assay: Open field test and toxicity of high doses in mice; conditions: intraperitoneally
# Procedure: Testing of the influence of the injectable substance based on tetrapeptide (as in example 2) H-Tyr-D-Arg-Phe-Gly-NH2 on the behavior of animals, was provided in the study of the toxicity of high doses of the “open field” test and maintaining balance on a horizontal rod.
# The aim of the experiment was to identify an effective dose of the substance that affects the behavior of the animals. It was tested on several animals after administration of different doses of peptide compound.
# The experimental and control groups of male mice were taken from the same batch, about the same weight (22-24 g).
# (§1) The substance was injected intraperitoneally in identical weight amounts to laboratory animals in the experimental and control groups, respectively. […] The measurement was started 15 minutes after injection.
# Several groups were organized: without the introduction of the substance, and with the introduction of a solution of morphine or peptide. After 15 from injection we conducted measurement in the following order:
# Each animal tested was introduced into a round, not brightly lit arena. The surface is divided into square blocks of 10 cm each. We count locomotor activity of the mouse when it crossed the square. The movement of the mouse in the center of the arena and on the periphery, are recorded separately. We registered the number of times the mouse stands on its hind legs “stand” and the number of times the mouse looks into a “burrow”—ie. holes in the floor. Observations were done visually and were simultaneously entered into a computer using a keyboard (semi-automatic registration).
# mice [4] = assay: Acetic acid-induced writhing test in mice; conditions: for Number of writhings, n (Mean ± SEM): 15 minutes count
# Procedure: The acetic acid-induced writhing test is a model of a chemical nociceptive stimulus applied by the intraperitoneal injection of acetic acid solution.
# Intraperitoneal injection of substances that irritate serous membranes in mice induces distinctive movements, including contractions of abdominal muscles followed by muscle relaxation, extension of the hind limbs and curving of the back, known as writhing. Mice were given an intraperitoneal injection of 1% acetic acid at a dose of 0.1 mL per 10 g body weight. After the injection the mice were placed in transparent acrylic chambers and counted the number of writhings in each animal for the next 15 minutes. The analgesic effect was evaluated by a reduction in the number of writhings in mice that received the study drug relative to the control group. […] Writhing onset latency in mice was used as an additional parameter for evaluating the efficacy of the substance in the acetic acid-induced writhing test.
# mice [5] = assay: Balancing on a horizontal rod test in mice
# Procedure: as §1
# Animals were placed on a wooden rod with a diameter of 2 cm and 40 cm long, at a height of not less than 60 cm. Then we recorded the duration maintenance of equilibrium on the rod. We processed the results using single factor dispersal analysis ANOVA.
# [6] = 0.5 mg/kg subcutaneous for 14 days, withdrawal test after 48 hours
structure (smiles),measurement,setting,value
"N=C(N)NCCC[C@@H](NC(=O)[C@@H](N)Cc1ccc(O)cc1)C(=O)N[C@@H](Cc1ccccc1)C(=O)NCC(N)=O [Peptide compound, H-Tyr-D-Arg-Phe-Gly-NH2] (H-Y[dR]FG-NH2)","MPE, % (Mean ± SEM)",mice [1]; 0.5 mg/kg subcutaneous chronic dosing for 14 days,50.5 ± 13.92 %
same,"TFL, s, After dosing (Mean ± SEM)","mice [1]; 0.5 mg/kg subcutaneous chronic dosing for 14 days, 40 minutes before the test",8.6 ± 1.25 s
same,"MPE, % (Mean ± SEM)",mice [1]; [6],1.3 ± 3.72%
same,"TFL, s, After dosing (Mean ± SEM)",mice [1]; [6],4.8 ± 0.36 s
same,"MPE, % (Mean ± SEM)",mice [1]; 0.5 mg/kg subcutaneous single dose on day 14,43.3 ± 11.19 %
same,"TFL, s, After dosing (Mean ± SEM)","mice [1]; 0.5 mg/kg subcutaneous single dose on day 14, 40 minutes before the test",8.0 ± 1.03 s
same,tolerance or withdrawal syndrome,"mice [1]; 0.5 mg/kg subcutaneously, single dosing or chronic treatment",lack of tolerance or withdrawal syndrome
same,"TFL, s, Baseline values (Mean ± SEM)",mice [1]; group 0.5 mg/kg chronic dosing,4.6 ± 0.26 s
same,"TFL, s, Baseline values (Mean ± SEM)",mice [1]; group 0.5 mg/kg single dose,4.5 ± 0.36 s
same,"TFL, s, Baseline values (Mean ± SEM)",mice [1]; group 0.5 mg/kg withdrawal,4.7 ± 0.24 s
same,"MPE, % (Mean ± SEM)","mice [2]; 0.5 mg/kg subcutaneous, 0.5 hours",45.6 ± 13.31%
same,"MPE, % (Mean ± SEM)","mice [2]; 0.5 mg/kg subcutaneous, 1 hours",49.9 ± 11.54%
same,"MPE, % (Mean ± SEM)","mice [2]; 0.5 mg/kg subcutaneous, 2 hours",15.5 ± 4.78%
same,"MPE, % (Mean ± SEM)","mice [2]; 0.5 mg/kg subcutaneous, 4 hours",6.3 ± 2.43%
same,"MPE, % (Mean ± SEM)","mice [2]; 0.5 mg/kg subcutaneous, 6 hours",6.3 ± 2.94%
same,"MPE, % (Mean ± SEM)","mice [2]; 0.5 mg/kg subcutaneous, 8 hours",−2.6 ± 3.18%
same,"MPE, % (Mean ± SEM)","mice [2]; 1.5 mg/kg subcutaneous, 0.5 hours",97.2 ± 2.78%
same,"MPE, % (Mean ± SEM)","mice [2]; 1.5 mg/kg subcutaneous, 1 hours",62.7 ± 14.4%
same,"MPE, % (Mean ± SEM)","mice [2]; 1.5 mg/kg subcutaneous, 2 hours",33.4 ± 4.85%
same,"MPE, % (Mean ± SEM)","mice [2]; 1.5 mg/kg subcutaneous, 4 hours",25.6 ± 11.69%
same,"MPE, % (Mean ± SEM)","mice [2]; 1.5 mg/kg subcutaneous, 6 hours",4.6 ± 7.8%
same,"MPE, % (Mean ± SEM)","mice [2]; 1.5 mg/kg subcutaneous, 8 hours",5.3 ± 3.46%
same,"MPE, % (Mean ± SEM)","mice [2]; 4.5 mg/kg subcutaneous, 0.5 hours",100.0 ± 0.00%
same,"MPE, % (Mean ± SEM)","mice [2]; 4.5 mg/kg subcutaneous, 1 hours",100.0 ± 0.00%
same,"MPE, % (Mean ± SEM)","mice [2]; 4.5 mg/kg subcutaneous, 2 hours",100.0 ± 0.00%
same,"MPE, % (Mean ± SEM)","mice [2]; 4.5 mg/kg subcutaneous, 4 hours",49.9 ± 10.21%
same,"MPE, % (Mean ± SEM)","mice [2]; 4.5 mg/kg subcutaneous, 6 hours",6.5 ± 5.94%
same,"MPE, % (Mean ± SEM)","mice [2]; 4.5 mg/kg subcutaneous, 8 hours",2.6 ± 4.0%
same,maximum duration of the analgesic effect,mice [2]; after dosing with 1.5 mg/kg and 4.5 mg/kg,4 h
same,doses that do not result in toxic effects,mice [3],up to 200 EC50
same,toxic effects,mice [3]; dose of 100 mg/kg,"the animals continued to move actively, breathing was not inhibited, and heart beats were stable"
same,reduced activity moving around the field,"mice [3]; open field, dose of 20-100 mg/kg, 15 minutes after injection",20-25%
same,"reduction in exploratory activity (""stand-burrow"")","mice [3]; open field, large doses",20-30%
same,"increase in writhing onset latency relative to the control group, factor",mice [4]; 0.25 mg/kg,2.6
same,"reduction of visceral pain (number of writhings) relative to the control group, factor",mice [4]; 0.25 mg/kg,2.2
same,% of mice w/o writhing,mice [4]; 0.25 mg/kg subcutaneous,0%
same,Number of mice w/o writhing/number of mice in group,mice [4]; 0.25 mg/kg subcutaneous,0/9
same,"Writhing onset latency, s (Mean ± SEM)",mice [4]; 0.25 mg/kg subcutaneous,397.2 ± 69.95 s
same,"Number of writhings, n (Mean ± SEM)",mice [4]; 0.25 mg/kg subcutaneous 40 minutes before acetic acid,40.7 ± 4.50 n
same,animals that exhibited writhing,mice [4]; 0.25 mg/kg subcutaneously,100%
same,animals in which the pain response was observed,mice [4]; 0.5 mg/kg,40.0%
same,"increase in writhing onset latency relative to the control group, factor",mice [4]; 0.5 mg/kg,4.1
same,"reduction of visceral pain (number of writhings) relative to the control group, factor",mice [4]; 0.5 mg/kg,31.8
same,% of mice w/o writhing,mice [4]; 0.5 mg/kg subcutaneous,40.0%
same,Number of mice w/o writhing/number of mice in group,mice [4]; 0.5 mg/kg subcutaneous,4/10
same,"Writhing onset latency, s (Mean ± SEM)",mice [4]; 0.5 mg/kg subcutaneous,632.5 ± 80.62 s
same,"Number of writhings, n (Mean ± SEM)",mice [4]; 0.5 mg/kg subcutaneous 40 minutes before acetic acid,2.8 ± 1.00 n
same,animals in which the pain response was observed,mice [4]; 1 mg/kg,55.6%
same,"increase in writhing onset latency relative to the control group, factor",mice [4]; 1 mg/kg,4.9
same,"reduction of visceral pain (number of writhings) relative to the control group, factor",mice [4]; 1 mg/kg,74.2
same,% of mice w/o writhing,mice [4]; 1 mg/kg subcutaneous,55.6%
same,Number of mice w/o writhing/number of mice in group,mice [4]; 1 mg/kg subcutaneous,5/9
same,"Writhing onset latency, s (Mean ± SEM)",mice [4]; 1 mg/kg subcutaneous,762.8 ± 55.76 s
same,"Number of writhings, n (Mean ± SEM)",mice [4]; 1 mg/kg subcutaneous 40 minutes before acetic acid,1.2 ± 0.49 n
same,reduced activity in horizontal movement on the rod,mice [5]; higher doses 20-100 mg/kg,10-20%
same,"maintaining balance on a horizontal rod, experimental vs control groups",mice [5]; intraperitoneally,did not observe significant differences
